# According to patent publication US9776972B2, “Pyrazole derivatives as arginine methyltransferase inhibitors and uses thereof” (priority 2013, dated 2017):
# Key:
# human PRMT3 = human PRMT3 (Homo sapiens, UniProt O60678); test: PRMT3 Biochemical Assay (3H-SAM Flashplate, peptide substrate); conditions: single experiment or average of multiple experiments
# From the text: S-adenosylmethionine (SAM), S-adenosylhomocysteine (SAH), bicine, Tween20, dimethylsulfoxide (DMSO), bovine skin gelatin (BSG), isopropyl-β-D-thiogalactopyranoside (IPTG), and Tris(2-carboxyethyl)phosphine hydrochloride solution (TCEP) were purchased from Sigma-Aldrich at the highest level of purity possible. ^3H-SAM was purchase from American Radiolabeled Chemicals with a specific activity of 80 Ci/mmol. 384-well streptavidin Flashplates were purchased from PerkinElmer.
# Peptide containing the classic RMT substrate motif was synthesized with an N-terminal linker-affinity tag motif and a C-terminal amide cap by 21st Century Biochemicals. The peptide was purified by high-performance liquid chromatography (HPLC) to greater than 95% purity and confirmed by liquid chromatography mass spectrometry (LC-MS). The sequence was Biot-Ahx-[…]-amide (SEQ ID NO.:11).
# Full-length human PRMT3 (NM_005788.3) isoform 1 transcript clone was amplified from an HEK 293 cDNA library and subcloned into pGEX-KG (GE Life Sciences). The resulting construct encodes an N-terminal GST tag and a thrombin cleavage sequence ([…] […] […] […]) (SEQ ID NO.: 12) fused directly to Cys 2 of PRMT3.
# E. coli (BL21(DE3) Gold, Stratagene) made competent by the CaCl2 method were transformed with the PRMT3 construct and ampicillin selection. Protein over-expression was accomplished by growing the PRMT3 expressing E. coli clone and inducing expression with 0.3 mM IPTG at 16° C. The culture was grown for 12 hours, harvested by centrifugation, and stored at −80° C. for purification.
# GST-tagged PRMT3 was eluted with 50 mM Tris, 2 mM glutathione, pH 7.1 and 50 mM Tris, 20 mM glutathione, pH 7.1. Pooled fractions were dialysed in 20 mM Tris, 50 mM NaCl, 5% glycerol, 1 mM EDTA, 1 mM DTT, pH7.5 (Buffer B) and applied to a Q Sepharose Fast Flow column. GST-tagged PRMT3 was eluted by 500 mM NaCl in buffer B. Pooled fractions were dialyzed in 25 mM phosphate buffer, 100 mM NaCl, 5% glycerol, 2 mM DTT, pH 6.8 (Buffer C) and loaded on to a ceramic hydroxyapatite column. GST-tagged PRMT3 eluted with 25-400 mM phosphate in buffer C. Protein was concentrated and buffer was exchanged to 20 mM Tris, 150 mM NaCl, 5% glycerol, 5 mM β-mercaptoethanol, pH7.8 by ultrafiltration. The purity of recovered protein was 70%.
# General Procedure for PRMT3 Enzyme Assays on Peptide Substrates.
# The assays were all performed in a buffer consisting of 20 mM Bicine (pH=7.6), 1 mM TCEP, 0.005% BSG, and 0.002% Tween 20, prepared on the day of use. Compounds in 100% DMSO (1 ul) were spotted into a polypropylene 384-well V-bottom plates (Greiner) using a Platemate Plus outfitted with a 384-channel head (Thermo Scientific). DMSO (1 ul) was added to Columns 11, 12, 23, 24, rows A-H for the maximum signal control and 1 ul of SAH, a known product and inhibitor of PRMT3, was added to columns 11, 12, 23, 24, rows I-P for the minimum signal control. A cocktail (40 ul) containing the PRMT3 enzyme was added by Multidrop Combi (Thermo-Fisher). The compounds were allowed to incubate with PRMT3 for 30 min at room temperature, then a cocktail (10 ul) containing SAM and peptide was added to initiate the reaction (final volume=51 ul). The final concentrations of the components were as follows: PRMT3 was 0.5 nM, ^3H-SAM was 100 nM, non-radiolabeled SAM was 1.8 uM, peptide was 330 nM, SAH in the minimum signal control wells was 1 mM, and the DMSO concentration was 2%. The assays were stopped by the addition of potassium chloride (10 ul) to a final concentration of 100 mM. 50 ul of the reaction in the 384-well polypropylene plate was then transferred to a 384-well Flashplate and the biotinylated peptides were allowed to bind to the streptavidin surface for at least 1 hour before being washed once with 0.1% Tween20 in a Biotek ELx405 plate washer. […]
# [1] = tested on: mono-methyl arginine in RKO cells; test: RKO Methylation Assay, In Cell Western (ICW) for mono-methyl arginine and DNA content; type: cell-based; conditions: Homo sapiens, RKO, 72 h, RKO cells, 72 hours, mono-methyl arginine, percent activation; single experiment or average of multiple experiments; read-out: EC30 (In Cell Western data, Numerical)
# From the text: RKO adherent cells were purchased from ATCC (American Type Culture Collection), Manassas, Va., USA. DMEM/Glutamax medium, penicillin-streptomycin, heat inactivated fetal bovine serum, 0.05% trypsin and D-PBS were purchased from Life Technologies, Grand Island, N.Y., USA. Odyssey blocking buffer, 800CW goat anti-rabbit IgG (H+L) antibody, and Licor Odyssey infrared scanner were purchased from Licor Biosciences, Lincoln, Nebr., USA. Mono-methyl arginine antibody was purchased from Cell Signaling Technology, Danvers, Mass., USA. Methanol was purchased from VWR, Franklin, Mass., USA. 10% Tween 20 was purchased from KPL, Inc., Gaithersburg, Md., USA. DRAQ5 was purchased from Biostatus Limited, Leicestershire, UK.
# RKO adherent cells were maintained in growth medium (DMEM/Glutamax medium supplemented with 10% v/v heat inactivated fetal bovine serum and 100 units/mL penicillin-streptomycin) and cultured at 37° C. under 5% CO2.
# Cell Treatment, in Cell Western (ICW) for Detection of Mono-Methyl Arginine and DNA Content.
# RKO cells were seeded in assay medium at a concentration of 20,000 cells per mL to a poly-D-lysine coated 384 well culture plate (BD Biosciences 356697) with 50 μL per well. Compound (100 nL) from a 96-well source plate was added directly to 384 well cell plate. Plates were incubated at 37° C., 5% CO2 for 72 hours. After three days of incubation, plates were brought to room temperature outside of the incubator for ten minutes and blotted on paper towels to remove cell media. 50 μL of ice cold 100% methanol was added directly to each well and incubated for 30 min at room temperature. After 30 min, plates were transferred to a Biotek EL406 plate washer and washed 2 times with 100 μL per well of wash buffer (1×PBS). Next 60 μL per well of Odyssey blocking buffer (Odyssey Buffer with 0.1% Tween 20 (v/v)) were added to each plate and incubated 1 hour at room temperature. Blocking buffer was removed and 20 μL per well of primary antibody was added (mono-methyl arginine diluted 1:200 in Odyssey buffer with 0.1% Tween 20 (v/v)) and plates were incubated overnight (16 hours) at 4° C. Plates were washed 5 times with 100 μL per well of wash buffer. Next 20 μL per well of secondary antibody was added (1:200 800CW goat anti-rabbit IgG (H+L) antibody, 1:1000 DRAQ5 (Biostatus limited) in Odyssey buffer with 0.1% Tween 20 (v/v)) and incubated for 1 hour at room temperature. The plates were washed 5 times with 100 μL per well wash buffer then 2 times with 100 μL per well of water. Plates were allowed to dry at room temperature then imaged on the Licor Odyssey machine which measures integrated intensity at 700 nm and 800 nm wavelengths. Both 700 and 800 channels were scanned.
# First, the ratio for each well was determined by:
# Each plate included fourteen control wells of DMSO only treatment (minimum activation) as well as fourteen control wells for maximum activation treated with 20 μM of a reference compound. The average of the ratio values for each control type was calculated and used to determine the percent activation for each test well in the plate. Reference compound was serially diluted three-fold in DMSO for a total of nine test concentrations, beginning at 20 μM. Percent activation was determined and EC30 curves were generated using triplicate wells per concentration of compound.
# Chain of human PRMT3 (O60678 with tags, fused parts or gaps): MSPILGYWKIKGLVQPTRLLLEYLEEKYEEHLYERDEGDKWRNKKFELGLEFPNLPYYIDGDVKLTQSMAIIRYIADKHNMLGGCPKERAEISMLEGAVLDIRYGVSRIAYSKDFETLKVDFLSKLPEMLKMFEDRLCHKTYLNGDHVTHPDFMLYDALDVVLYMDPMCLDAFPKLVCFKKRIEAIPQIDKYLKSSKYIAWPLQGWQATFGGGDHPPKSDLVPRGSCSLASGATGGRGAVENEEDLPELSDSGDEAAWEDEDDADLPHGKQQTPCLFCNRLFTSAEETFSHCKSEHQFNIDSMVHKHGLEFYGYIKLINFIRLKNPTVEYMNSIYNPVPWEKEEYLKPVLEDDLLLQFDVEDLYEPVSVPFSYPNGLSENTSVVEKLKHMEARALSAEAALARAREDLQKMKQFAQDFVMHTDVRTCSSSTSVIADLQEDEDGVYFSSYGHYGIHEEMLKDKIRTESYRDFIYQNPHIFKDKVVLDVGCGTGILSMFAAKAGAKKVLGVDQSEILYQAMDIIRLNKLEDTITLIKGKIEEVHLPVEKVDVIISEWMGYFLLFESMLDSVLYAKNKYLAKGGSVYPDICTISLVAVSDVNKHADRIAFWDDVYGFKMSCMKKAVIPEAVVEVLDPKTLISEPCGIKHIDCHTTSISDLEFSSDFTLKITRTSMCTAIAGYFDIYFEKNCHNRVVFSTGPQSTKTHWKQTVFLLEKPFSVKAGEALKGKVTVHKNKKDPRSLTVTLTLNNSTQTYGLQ
smiles,measurement,setting,value
CC(C)Cc1ccc(-c2n[nH]cc2CN(C)CCN)cc1 [Compound 165],IC50,human PRMT3,1730 nM
same,EC30,[1],660 nM
